From patent US4988692A, “2,4-dioxo-5-phenyl-2,3,4,5-tetrahydro-1H-1,5-benzodiazepines” (Uclaf; Roussel, priority 1985, dated 1991)
pIC50: −log10 of the molar value.

Assays:
Peripheral CCK receptors = target: T1, Peripheral CCK receptors (Rattus norvegicus, UniProt P30551); assay: Peripheral receptors: 3H CCK8 binding, rat pancreas homogenate
T1 construct: The pancreases of 3 male rats weighing 150-200 g were removed and ground up with Polytron; from tissue; host or cells: rat pancreas homogenate (30,000 g pellet)
T1 sequence (P30551 1-444): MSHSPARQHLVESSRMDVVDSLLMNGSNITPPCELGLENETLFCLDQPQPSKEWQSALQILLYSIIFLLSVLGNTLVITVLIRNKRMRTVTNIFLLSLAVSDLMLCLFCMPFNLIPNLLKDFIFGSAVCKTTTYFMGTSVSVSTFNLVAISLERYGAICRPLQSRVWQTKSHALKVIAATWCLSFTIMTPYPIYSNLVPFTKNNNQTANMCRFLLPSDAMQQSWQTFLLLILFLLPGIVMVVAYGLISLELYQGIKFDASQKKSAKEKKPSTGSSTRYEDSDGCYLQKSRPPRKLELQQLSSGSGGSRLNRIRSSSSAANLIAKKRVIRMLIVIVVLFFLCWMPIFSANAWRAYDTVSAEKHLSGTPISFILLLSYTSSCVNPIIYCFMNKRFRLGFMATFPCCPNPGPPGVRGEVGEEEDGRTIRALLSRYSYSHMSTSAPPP
Procedure: The pancreases of 3 male rats weighing 150-200 g were removed and ground up with Polytron (4 grindings, speed 3, with an interval of 10 seconds between the grindings) and the homogenate was filtered through a gauze and then centrifuged at 30,000 g for 30 minutes. The residues obtained were taken up in 400 volumes (600 ml) of Tris 50 mM HCl pH 7.4 buffer containing BSA 2 g/l., bacitracin 0.1 mM, MgCl2 5 mM, dithiothreitol 5 mM. 2 ml aliquots of the homogenate were incubated at 25° C. for 60 minutes in the presence of […] 3H CCK8 and of the test product (10,000 μM for 1 dose, or with one range of 7 doses) and of cold CCK8 (10^-6 M) which was the reference product. After returning to 0° C., the aliquots were filtered on Whatman GF/B filters, pre-washed in a solution of polyethylene imine at 0.05% and washed with 3×5 ml of buffer Tris HCl 50 mM, pH 7.4. The results were expressed in IC50, the concentration necessary to inhibit by 50% the fixed specific radioactivity, IC50 n mol

Central CCK receptors = target: T2, Central CCK receptors (Rattus norvegicus, UniProt P30553); assay: Central receptors: 3H CCK8 binding, rat cortex homogenate; settings: 0.5 nM 3H CCK8, 25° C., 30 minutes
T2 construct: The cortices of 20 male rats weighing 150 to 200 g were removed, and were ground up with Polytron in sucrose; from tissue; host or cells: rat cerebral cortex homogenate (washed membrane pellet)
T2 sequence (P30553 1-452): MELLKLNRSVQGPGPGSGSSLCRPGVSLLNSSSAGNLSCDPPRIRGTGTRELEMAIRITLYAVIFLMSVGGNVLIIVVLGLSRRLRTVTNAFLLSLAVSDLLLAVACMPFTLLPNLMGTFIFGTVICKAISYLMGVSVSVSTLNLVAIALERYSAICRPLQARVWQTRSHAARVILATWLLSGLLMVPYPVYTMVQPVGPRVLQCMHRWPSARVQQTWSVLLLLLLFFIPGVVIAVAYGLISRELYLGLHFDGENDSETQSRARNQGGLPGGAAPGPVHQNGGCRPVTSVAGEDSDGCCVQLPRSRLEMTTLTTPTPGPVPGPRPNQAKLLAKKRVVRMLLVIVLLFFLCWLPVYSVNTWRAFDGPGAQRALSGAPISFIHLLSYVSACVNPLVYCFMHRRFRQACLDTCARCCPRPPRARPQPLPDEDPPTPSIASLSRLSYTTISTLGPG
Procedure: The cortices of 20 male rats weighing 150 to 200 g were removed, and were ground up with Polytron in sucrose 0.32M. After centrifuging, the supernatant was recovered and centrifuged. The residues were re-suspended in 120 ml of Hepes buffer pH 7.4 (Hepes 10 mM, NaCl 130 mM, MgCl2, 6H2 O 5 mM, bacitracin 250 mg/l., PMSF 1 mg/l), and re-centrifuged. The residues were taken up in 120 ml of Hepes buffer pH 7.4 and re-centrifuged at 30,000 g for 30 minutes. The residues thus obtained were taken up in 500 ml of Hepes buffer pH 7.4, which enabled 240 aliquots of 2 ml of homogenate to be obtained. The incubation was effected at 25° C. for 30 minutes in the presence of 0.5 nM of 3H CCK8 and the test product (10,000 μM for 1 dose, or with a range of 7 doses or of cold CCK8 (10^-6 M), which was the reference product). After returning the aliquots of the homogenate to 0° C., they were filtered on Whatman GF/B filters and the filters were washed with 3×5 ml of a Tris HCl 50 mM pH 7.4 buffer. The results are expressed is IC50 which is the concentration necessary to inhibit by 50% the fixed specific radioactivity.

food consumption = assay: Action on the alimentary intake in a rat; format: in vivo; settings: 10 mg/kg intraperitoneal, consumption followed hourly for 5 hours
Procedure: The tests were carried out on groups of 5 rats weighing 250 g±10 g and the animals were individually placed in cages with a trough as described by Fregly (J. Appl. Physiol Vol. 15 (1960), p. 539) which avoided wasting of the powdered foodstuffs. The rats were accustomed to taking their daily portion over 5 consecutive hours with as much drinking water as desired being offered in glass feeding bottles. The quantities of food ingested were determined individually by the weight of the troughs and the comsumptions were followed hourly for 5 hours after intraperitoneal administration of 10 mg/kg of the compound. The quantities consumed are expressed in g/100 g of body weight per hour. The averages are compared to those obtained with control animals by a DUNNETT test.

[1] = system: CCK8-induced contractions of isolated ileum; assay: Action on the isolated ileum of a guinea-pig (antagonism of CCK8 contractions); settings: product 10^-7 M, one minute contact, CCK8 1.10^-8 M
Procedure: The test was carried out on fragments of ileum from male guinea-pigs placed under a tension of 1 g in a Krebs solution aerated with carbogen and maintained at 37° C. The contractions were recorded with a microdynamometer connected to a polygraph. The ileum was left at rest for 30 minutes and then CCK8 was added to the bath in a concentration of 1.10^-8 M, followed by rinsing. The test product was added to the bath, left in contact with the organ for one minute and then CCK8 (1.10^-8 M) was added to the bath. The possible antagonism was expressed by comparing the contractions caused by the CCK8 before and after contact with the product under test.

| Structure (SMILES) | pIC50 (Peripheral CCK receptors) | pIC50 (Central CCK receptors) | reduction of food consumption in relation to control animals (anorexigenic activity) (food consumption) | antagonism of contractions caused by CCK8 [1] |
| --- | --- | --- | --- | --- |
| CN1C(=O)C(NC(=O)c2cc3ccccc3[nH]2)C(=O)N(c2ccccc2)c2cc(Cl)ccc21 (stereo not drawn) [Example 1, N-(7-chloro-2,4-dioxo-1-methyl-5-phenyl-2,3,4,5-tetrahydro-1H-1,5-benzodiazepin-3-yl)-1H-indole-2-carboxamide] | 7.70 | 5.66 | more than 50% |  |
| CN1C(=O)C(NC(=O)c2cc3ccccc3[nH]2)C(=O)N(c2ccccc2)c2ccccc21 (stereo not drawn) [Example 2] | 7.85 | < 5.00 |  | significant antagonist activity |
